Where two headings read alike, the source gives them in different places.
Key:
[1] = molecular target: PARP-1 enzyme (Homo sapiens, UniProt P09874); test: In vitro filtration assay for PARP-1 inhibitory activity; format: biochemical
Method: In Vitro Filtration Assay for PARP-1 Inhibitory Activity
Compounds of the present invention were tested in an in vitro filtration assay assessing PARP-1 activity (triggered in the presence of nicked DNA) by means of its histone poly(ADP-ribosyl)ation activity using [^32P]-NAD as ADP-ribosyl donor. The radioactive ribosylated histones were precipitated by trichloroacetic acid (TCA) in 96-well filterplates and the incorporated [^32P] measured using a scintillation counter
A mixture of histones (stock solution: 5 mg/ml in H2O), NAD^+ (stock solution: 100 mM in H2O), and [^32P]-NAD^+ in incubation buffer (50 mM Tris/HCl, pH 8; 0.2 mM DTT; 4 mM MgCl2) was made. A mixture of the PARP-1 enzyme (5-10 μg/ml) and nicked DNA was also made. The nicked DNA was prepared as described in the in vitro SPA for PARP-1 inhibitory activity. […] of the PARP-1 enzyme/DNA mixture together with 1 μl of compound in DMSO and 25 μl of histones-NAD^+/[^32P]-NAD^+ mixture was added per well of a 96-well filterplate (0.45 μm, supplier Millipore). The final concentrations in the incubation mixture were 2 μg/ml for the histones, 0.1 mM for the NAD^+, […] (0.5 μC) for the [^32P]-NAD^+ and 2 μg/ml for the nicked DNA. Plates were incubated for 15 min. at room temperature and the reaction was terminated by the addition of 10 μl ice cold 100% TCA followed by the addition of 10 μl ice-cold BSA solution (1% in H2O). The protein fraction was allowed to precipitate for 10 min. at 4° C. and plates were vacuum filtered. The plates were subsequently washed with, for each well, 1 ml of 10% ice cold TCA, 1 ml of 5% ice cold TCA and 1 ml of 5% TCA at room temperature. Finally 100 μl of scintillation solution (Microscint 40, Packard) was added to each well and the plates were transferred to a TopCountNXT™ (supplier: Packard) for scintillation counting and values were expressed as counts per minute (cpm). For each experiment, controls (containing PARP-1 enzyme and DMSO without compound), a blank incubation (containing DMSO but no PARP-1 enzyme or compound) and samples (containing PARP-1 enzyme and compound dissolved in DMSO) were run in parallel. All compounds tested were dissolved and eventually further diluted in DMSO. In first instance, compounds were tested at a concentration of 10^−5M. […] In each test, the blank value was subtracted from both the control and the sample values. The control sample represented maximal PARP-1 enzyme activity. For each sample, the amount of cpm was expressed as a percentage of the mean cpm value of the controls. When appropriate, IC50-values (concentration of the drug, needed to reduce the PARP-1 enzyme activity to 50% of the control) were computed using linear interpolation between the experimental points just above and below the 50% level. Herein the effects of test compounds are expressed as pIC50 (the negative log value of the IC50-value). As a reference compound, 4-amino-1,8-naphthalimide was included to validate the filtration assay.

[2] = [32P]-NAD, nicked DNA, histones, read-out: in vitro filter assay PARP-1 pIC50 (converted)

PARP-1 enzyme, sequence (P09874 whole entry): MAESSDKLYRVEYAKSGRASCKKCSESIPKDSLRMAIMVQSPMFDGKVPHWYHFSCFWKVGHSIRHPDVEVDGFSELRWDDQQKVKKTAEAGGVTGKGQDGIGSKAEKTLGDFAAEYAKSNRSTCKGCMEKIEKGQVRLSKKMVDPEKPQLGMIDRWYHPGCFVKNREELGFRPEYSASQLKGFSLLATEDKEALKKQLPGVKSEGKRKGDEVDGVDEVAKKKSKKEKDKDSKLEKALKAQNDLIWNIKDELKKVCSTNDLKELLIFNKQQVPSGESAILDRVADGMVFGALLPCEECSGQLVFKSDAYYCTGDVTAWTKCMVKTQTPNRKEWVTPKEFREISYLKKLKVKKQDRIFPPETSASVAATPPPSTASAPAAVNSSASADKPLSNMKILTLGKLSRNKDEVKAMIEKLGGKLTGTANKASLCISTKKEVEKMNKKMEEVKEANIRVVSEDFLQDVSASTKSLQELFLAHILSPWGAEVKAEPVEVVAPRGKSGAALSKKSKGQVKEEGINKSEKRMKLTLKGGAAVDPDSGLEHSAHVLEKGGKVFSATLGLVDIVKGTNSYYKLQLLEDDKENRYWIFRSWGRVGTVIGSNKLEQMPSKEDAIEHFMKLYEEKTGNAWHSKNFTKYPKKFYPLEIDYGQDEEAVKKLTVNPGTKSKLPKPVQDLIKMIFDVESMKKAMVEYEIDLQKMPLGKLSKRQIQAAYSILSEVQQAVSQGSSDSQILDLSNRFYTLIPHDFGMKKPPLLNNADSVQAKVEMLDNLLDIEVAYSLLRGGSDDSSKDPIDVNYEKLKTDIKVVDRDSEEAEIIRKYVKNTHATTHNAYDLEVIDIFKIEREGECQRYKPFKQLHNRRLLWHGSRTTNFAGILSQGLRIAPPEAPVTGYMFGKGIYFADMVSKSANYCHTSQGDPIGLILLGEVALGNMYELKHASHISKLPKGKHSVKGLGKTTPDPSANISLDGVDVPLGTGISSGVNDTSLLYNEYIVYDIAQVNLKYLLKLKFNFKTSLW

Structure (SMILES) | IC50 [1, 2] | melting point | IC50 [1]
O=C1NCN(c2ccccc2)C12CCN(CCCc1nc3ccccc3c(=O)[nH]1)CC2 [Compound 2] | 4.98 µM | – | –
NC(=O)C1(c2ccccc2)CCN(CCCc2nc3ccccc3c(=O)[nH]2)CC1 [Compound 4] | 0.0767 µM | 138.9 °C | –
NC(=O)C1(c2ccccc2)CCN(CCCC2NC(=O)c3ccccc3N2)CC1 (stereo not drawn) [Compound 5] | 0.3 µM | 216.1 °C | –
O=C1NC(CCN2CCC3(CC2)C(=O)NCN3c2ccccc2)Nc2ccccc21 (stereo not drawn) [Compound 6] | 2.14 µM | – | –
O=C(NC1CCN(CCCC2NC(=O)c3ccccc3N2)CC1)c1ccccc1 (stereo not drawn) [Compound 8] | 1.57 µM | – | –
O=C1NC(CCN2CCC(n3c(=O)[nH]c4ccccc43)CC2)Nc2ccccc21 (stereo not drawn) [Compound 13] | – | – | 4.66 µM

The next lines start with results.

IC50 [1, 2] | Structure (SMILES) | melting point | IC50 [1]
4.26 µM | O=C(CC1CCN(CCc2nc3ccccc3c(=O)[nH]2)CC1)c1ccc(F)cc1 [Compound 3] | 159.1 °C | –
4.16 µM | O=C1NC(CCCN2CCC(n3c(=O)[nH]c4ccccc43)CC2)Nc2ccccc21 (stereo not drawn) [Compound 7] | – | –
5.71 µM | O=C(c1ccc(F)cc1)C1CCN(CCc2nc3ccccc3c(=O)[nH]2)CC1 [Compound 9] | – | –
1.14 µM | NC(=O)C1(N2CCOCC2)CCN(CCCc2nc3ccccc3c(=O)[nH]2)CC1 [Compound 11] | – | –
0.673 µM | O=C(NC1CCN(CCCc2nc3ccccc3c(=O)[nH]2)CC1)c1ccccc1 [Compound 12] | – | –
0.546 µM | O=C(c1ccc(F)cc1)C1CCN(CCCc2nc3ccccc3c(=O)[nH]2)CC1 [Compound 14] | – | –

— patent US7875621B2, “Substituted 2-alkyl quinazolinone derivatives as PARP inhibitors” (Janssen Pharmaceutica NV, priority 2004, dated 2011)
